Laboratory results reported in US20060069132A1, “Azolecarboxamide herbicides” (priority 2004, published 2006).

Tests used:
rice [1] = assay: Test B flooded paddy test; type: in vivo, Oryza sativa; details: 1000 g ai/ha, scale 0 to 100 (0 no effect, 100 complete control)
In short: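 Postemergence plants were sprayed with formulated test chemicals at 2 to 18 cm height (1- to 4-leaf stage); paddy species were grown to the 2-leaf stage. After 13 to 15 days in a greenhouse, injury was rated visually against untreated controls on a 0–100 scale (0 = no effect, 100 = complete control).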

[2] = system: smallflower umbrella sedge; assay: Test C flooded paddy test; type: in vivo, Cyperus difformis
corn = assay: Test B pre-/postemergence herbicide test; type: in vivo, Zea mays; details: for Corn plant response rating: postemergence
In short: (§1)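 Response was scored visually 13 to 15 days after treatment against untreated greenhouse controls, 0 meaning no effect and 100 complete control. Formulations (solvent mixture plus surfactant) went onto soil after planting, onto foliage of 1- to 4-leaf plants, and onto 2-leaf plants in a flooded paddy set including rice and barnyardgrass.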

barnyardgrass [3] = assay: Test B flooded paddy test; type: in vivo, Echinochloa crus-galli; details: 1000 g ai/ha, scale 0 to 100 (0 no effect, 100 complete control)
In short: (§2)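 Visual control ratings, 0–100 versus untreated controls, taken after 13 to 15 days in the greenhouse. Blackgrass received a postemergence spray at the 1- to 4-leaf stage (2–18 cm); ducksalad, umbrella sedge and barnyardgrass were flooded-paddy treated at 2 leaves.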

ducksalad [4] = assay: Test B flooded paddy test; type: in vivo, Heteranthera limosa; details: 1000 g ai/ha, scale 0 to 100 (0 no effect, 100 complete control)
In short: as §2

velvetleaf = assay: Test B pre-/postemergence herbicide test; type: in vivo, Abutilon theophrasti; details: for Velvetleaf plant response rating: postemergence
In short: as §1

Surinam grass = assay: Test B pre-/postemergence herbicide test; type: in vivo, Urochloa decumbens; details: for Surinam Grass plant response rating: postemergence
In short: as §1

giant foxtail = assay: Test B pre-/postemergence herbicide test; type: in vivo, Setaria faberi; details: for Foxtail, Giant plant response rating: postemergence
In short: as §1

[5] = system: small flower umbrella sedge; assay: Test B flooded paddy test; type: in vivo, Cyperus difformis; details: 1000 g ai/ha, scale 0 to 100 (0 no effect, 100 complete control)
In short: as §2

ducksalad [6] = assay: Test C flooded paddy test; type: in vivo, Heteranthera limosa
cocklebur = assay: Test B pre-/postemergence herbicide test; type: in vivo, Xanthium strumarium; details: for Cocklebur plant response rating: postemergence, scale 0 (no effect) to 100 (complete control)
In short: as §1

rice [7] = assay: Test B pre-/postemergence herbicide test; type: in vivo, Oryza sativa; details: 0 = no effect, 100 = complete control, preemergence
In short: as §1

large crabgrass = assay: Test B pre-/postemergence herbicide test; type: in vivo, Digitaria sanguinalis; details: for Crabgrass, Large plant response rating: postemergence
In short: as §1

blackgrass = assay: Test B postemergence herbicide test; type: in vivo, Alopecurus myosuroides; details: postemergence, visual rating, scale 0 (no effect) to 100 (complete control)
In short: as §2

morningglory = assay: Test B pre-/postemergence herbicide test; type: in vivo, Ipomoea coccinea; details: for Morningglory plant response rating: postemergence
In short: as §1

pigweed = assay: Test B pre-/postemergence herbicide test; type: in vivo, Amaranthus retroflexus; details: for Pigweed plant response rating: postemergence
In short: as §1

rice [8] = assay: Test C flooded paddy test; type: in vivo, Oryza sativa
In short: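 Injury scored visually against controls on a 0 (no effect) to 100 (complete control) scale, 12 to 14 days after treatment in greenhouse. Flooded paddy plants treated at 2-leaf stage; postemergence plants at 1- to 4-leaf stage, 2 to 18 cm tall.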

barnyardgrass [9] = assay: Test B pre-/postemergence herbicide test; type: in vivo, Echinochloa crus-galli; details: for Barnyardgrass plant response rating: postemergence, scale 0 (no effect) to 100 (complete control)
In short: as §1

lambsquarters = assay: Test B pre-/postemergence herbicide test; type: in vivo, Chenopodium album; details: for Lambsquarters plant response rating: postemergence
In short: as §1

barnyardgrass [10] = assay: Test C flooded paddy test; type: in vivo, Echinochloa crus-galli
In short: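 Greenhouse test with a 12–14 day hold after application and visual comparison with controls. Emerged plants were 1- to 4-leaf stage (2–18 cm) when sprayed postemergence, and the paddy barnyardgrass was at 2 leaves under flooded conditions. 100 = complete control.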

wheat = assay: Test B postemergence herbicide test; type: in vivo, Triticum aestivum; parameters: key to Wheat plant response rating: 0 = no effect, 100 = complete control; details: postemergence
In short: (§3)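 Formulated test chemicals went onto postemergence plants measuring 2 to 18 cm, at one to four leaves. For the paddy assay, species had reached two leaves. Scoring took place 13–15 days later by eye, relative to untreated plants, using 0 for no effect up to 100 for full control.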

wild oat = assay: Test B postemergence herbicide test; type: in vivo, Avena fatua; details: postemergence
In short: as §3

[11] = 125 g ai/ha, scale 0 to 100 (0 no effect, 100 complete control)
[12] = 250 g ai/ha, scale of 0 to 100, 0 is no effect, 100 is complete control
[13] = 500 g ai/ha, visual rating after 12 to 14 days, scale 0 to 100 (0 no effect, 100 complete control)
[14] = 125 g ai/ha, 0 = no effect, 100 = complete control, preemergence
[15] = 500 g ai/ha, visual rating, 0 = no effect, 100 = complete control, preemergence
[16] = 125 g ai/ha, visual rating, scale 0 (no effect) to 100 (complete control)
[17] = 500 g ai/ha, scale 0 to 100, 0 is no effect, 100 is complete control

Structure (SMILES): CCNC(=O)c1cc(NC(=O)c2cc(C(C)(C)C)nn2CC)c(F)cc1F [Compound 252]
- Rice plant response rating (rice [1]): 80
- Sedge, Umbrella plant response rating ([2]; 62 g ai/ha, scale 0 to 100): 0
- Sedge, Umbrella plant response rating [2, 11]: 40
- Sedge, Umbrella plant response rating [2, 12]: 50
- Plant response rating, Sedge, Umbrella [2, 13]: 75
- Corn plant response rating (0 to 100 scale) (corn; [14]): 0
- Plant response rating, Corn (corn; [15]): 60
- Corn plant response rating (corn; [16]): 10
- Corn plant response rating (corn; [17]): 10
- Barnyardgrass plant response rating (barnyardgrass [3]): 70
- Ducksalad plant response rating (ducksalad [4]): 90
- Velvetleaf plant response rating (0 to 100 scale) (velvetleaf; [14]): 0
- Plant response rating, Velvetleaf (velvetleaf; [15]): 60
- Velvetleaf plant response rating (velvetleaf; [16]): 30
- Velvetleaf plant response rating (velvetleaf; [17]): 30
- Surinam Grass plant response rating (0 to 100 scale) (Surinam grass; [14]): 10
- Plant response rating, Surinam Grass (Surinam grass; [15]): 70
- Surinam Grass plant response rating (Surinam grass; [16]): 10
- Surinam Grass plant response rating (Surinam grass; [17]): 20
- Foxtail, Giant plant response rating (0 to 100 scale) (giant foxtail; [14]): 10
- Plant response rating, Foxtail, Giant (giant foxtail; [15]): 90
- Foxtail, Giant plant response rating (giant foxtail; [16]): 20
- Foxtail, Giant plant response rating (giant foxtail; [17]): 30
- Sedge, Umbrella plant response rating [5]: 80
- Ducksalad plant response rating (ducksalad [6]; 62 g ai/ha, scale 0 to 100): 0
- Ducksalad plant response rating (ducksalad [6]; [11]): 0
- Ducksalad plant response rating (ducksalad [6]; [12]): 15
- Plant response rating, Ducksalad (ducksalad [6]; [13]): 80
- Cocklebur plant response rating (0 to 100 scale) (cocklebur; [14]): 0
- Plant response rating, Cocklebur (cocklebur; [15]): 0
- Cocklebur plant response rating (cocklebur; 125 g ai/ha, visual rating): 20
- Cocklebur plant response rating (cocklebur; 500 g ai/ha, visual rating): 40
- Rice plant response rating (0 to 100 scale) (rice [7]; 125 g ai/ha): 30
- Plant response rating, Rice (rice [7]; 500 g ai/ha, visual rating): 50
- Crabgrass, Large plant response rating (0 to 100 scale) (large crabgrass; [14]): 80
- Plant response rating, Crabgrass, Large (large crabgrass; [15]): 100
- Crabgrass, Large plant response rating (large crabgrass; [16]): 0
- Crabgrass, Large plant response rating (large crabgrass; [17]): 10
- Blackgrass plant response rating (blackgrass; 125 g ai/ha): 10
- Blackgrass plant response rating (blackgrass; 500 g ai/ha): 20
- Morningglory plant response rating (0 to 100 scale) (morningglory; [14]): 0
- Plant response rating, Morningglory (morningglory; [15]): 0
- Morningglory plant response rating (morningglory; [16]): 20
- Morningglory plant response rating (morningglory; [17]): 20
- Plant response rating, Pigweed (pigweed; [15]): 100
- Pigweed plant response rating (pigweed; [16]): 20
- Pigweed plant response rating (pigweed; [17]): 30
- Rice plant response rating (rice [8]; 62 g ai/ha, scale 0 to 100): 0
- Rice plant response rating (rice [8]; [11]): 45
- Rice plant response rating (rice [8]; [12]): 55
- Plant response rating, Rice (rice [8]; [13]): 60
- Barnyardgrass plant response rating (0 to 100 scale) (barnyardgrass [9]; [14]): 0
- Plant response rating, Barnyardgrass (barnyardgrass [9]; [15]): 70
- Barnyardgrass plant response rating (barnyardgrass [9]; 125 g ai/ha, visual rating): 0
- Barnyardgrass plant response rating (barnyardgrass [9]; 500 g ai/ha, visual rating): 10
- Plant response rating, Lambsquarters (lambsquarters; [15]): 100
- Lambsquarters plant response rating (lambsquarters; [16]): 30
- Lambsquarters plant response rating (lambsquarters; [17]): 30
- Barnyardgrass plant response rating (barnyardgrass [10]; 62 g ai/ha, scale 0 to 100 (0 no effect, 100 complete control)): 0
- Barnyardgrass plant response rating (barnyardgrass [10]; [11]): 0
- Barnyardgrass plant response rating (barnyardgrass [10]; [12]): 15
- Plant response rating, Barnyardgrass (barnyardgrass [10]; [13]): 45
- Wheat plant response rating (wheat; [16]): 20
- Wheat plant response rating (wheat; [17]): 20
- Oat, Wild plant response rating (wild oat; [16]): 20
- Oat, Wild plant response rating (wild oat; [17]): 20
